Laboratory results as given in ChEMBL document CHEMBL4732198, “HDAC7 Inhibition by Phenacetyl and Phenylbenzoyl Hydroxamates” (J Med Chem, 2021).
pIC50: −log10 of the molar value. One block for each molecule: values may come before it. Calls of active or inactive are those of the source. The calls are words filed in the database; no cut-off is given here.

Columns and labels:
[1] = Metabolic stability in Sprague-Dawley rat liver microsomes assessed as half life at 5 uM preincubated for 5 mins followed by NADPH addition and measured after 60 mins by LCMS analysis; assay type: ADME, Microsome; details: time 65 min
Histone deacetylase 1 = Histone deacetylase 1 (Homo sapiens, UniProt Q13547); assay: Inhibition of recombinant human HDAC1 using Ac-LGK(Ac)-AMC as substrate preincubated for 30 mins followed by substrate addition and measured after 90 mins by fluorescence based assay
Histone deacetylase 7 = target: T1, Histone deacetylase 7 (Homo sapiens, UniProt Q8WUI4)
T1 sequence (Q8WUI4 whole entry): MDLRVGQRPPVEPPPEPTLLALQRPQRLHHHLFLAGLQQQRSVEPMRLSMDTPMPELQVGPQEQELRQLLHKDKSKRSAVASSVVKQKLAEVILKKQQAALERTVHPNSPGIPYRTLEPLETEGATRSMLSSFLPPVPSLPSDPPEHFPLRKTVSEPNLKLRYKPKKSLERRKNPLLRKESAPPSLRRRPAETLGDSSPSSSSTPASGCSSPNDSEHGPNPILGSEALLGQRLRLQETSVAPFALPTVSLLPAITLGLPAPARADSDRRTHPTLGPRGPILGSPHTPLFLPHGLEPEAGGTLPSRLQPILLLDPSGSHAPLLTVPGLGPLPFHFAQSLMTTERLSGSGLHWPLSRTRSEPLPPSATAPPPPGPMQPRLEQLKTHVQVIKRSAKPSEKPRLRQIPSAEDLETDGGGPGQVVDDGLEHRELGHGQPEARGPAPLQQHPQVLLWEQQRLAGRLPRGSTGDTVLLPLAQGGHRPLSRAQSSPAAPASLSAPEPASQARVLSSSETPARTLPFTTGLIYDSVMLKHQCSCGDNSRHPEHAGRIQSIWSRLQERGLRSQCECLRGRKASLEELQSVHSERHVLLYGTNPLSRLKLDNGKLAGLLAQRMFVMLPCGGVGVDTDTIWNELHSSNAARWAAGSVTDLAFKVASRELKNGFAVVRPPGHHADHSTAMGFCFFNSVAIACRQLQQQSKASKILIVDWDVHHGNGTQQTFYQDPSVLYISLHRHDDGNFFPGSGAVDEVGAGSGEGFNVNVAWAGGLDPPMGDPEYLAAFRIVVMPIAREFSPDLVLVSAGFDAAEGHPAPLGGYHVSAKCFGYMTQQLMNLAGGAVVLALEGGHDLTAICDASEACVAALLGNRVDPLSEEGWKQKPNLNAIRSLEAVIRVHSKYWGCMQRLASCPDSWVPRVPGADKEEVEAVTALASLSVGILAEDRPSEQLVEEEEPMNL
Description: Inhibition of recombinant human HDAC7 using Ac-LGK(TFA)-AMC as substrate pre-incubated for 15 mins followed by substrate addition and measured after 60 mins by fluorescence based assay

Histone deacetylase 5 = Histone deacetylase 5 (Homo sapiens, UniProt Q9UQL6); assay: Inhibition of recombinant human HDAC5 using Ac-LGK(TFA)-AMC as substrate pre-incubated for 15 mins followed by substrate addition and measured after 60 mins by fluorescence based assay
Macrophage [2] = assay: Antiinflammatory activity in human monocytes-derived macrophages assessed as inhibition of LPS-induced IL-23 secretion at 30 uM pretreated for 1 hr followed by LPS stimulation and measured after 24 hrs by homogenous time-resolved fluorescence assay; assay type: functional, cell-based; details: time 25.0 hrs
[3] = Metabolic stability in Sprague-Dawley rat liver microsomes assessed as half life at 20 uM preincubated for 5 mins followed by NADPH addition and measured after 60 mins by LCMS analysis; assay type: ADME, Microsome; details: time 65 min
[4] = target: T2, Class 1 histone deacetylase (Homo sapiens, UniProt Q13547+O15379+Q92769+Q9BY41); assay: Inhibition of Class 1 histone deacetylase in human THP-1 cells using Ac-LGK(Ac)-AMC as substrate incubated for 3 hrs followed by 50 uM SAHA addition and measured after 1 hr by fluorescence based assay; assay type: cell-based
Histone deacetylase 8 = target: T3, Histone deacetylase 8 (Homo sapiens, UniProt Q9BY41); assay: Inhibition of recombinant human HDAC8 using Ac-LGK(TFA)-AMC as substrate preincubated for 30 mins followed by substrate addition and measured after 90 mins by fluorescence based assay
T3 sequence (Q9BY41 whole entry): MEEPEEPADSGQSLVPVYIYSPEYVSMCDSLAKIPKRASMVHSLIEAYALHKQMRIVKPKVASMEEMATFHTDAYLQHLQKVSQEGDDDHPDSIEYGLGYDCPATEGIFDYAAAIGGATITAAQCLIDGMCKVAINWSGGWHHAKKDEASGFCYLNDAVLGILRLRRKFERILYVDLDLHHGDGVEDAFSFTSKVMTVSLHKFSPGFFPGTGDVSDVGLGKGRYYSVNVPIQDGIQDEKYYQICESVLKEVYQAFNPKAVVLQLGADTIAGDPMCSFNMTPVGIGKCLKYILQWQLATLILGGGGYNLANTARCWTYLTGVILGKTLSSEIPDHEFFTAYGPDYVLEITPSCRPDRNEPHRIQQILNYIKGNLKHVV

[5] = target: T2, Class 1 histone deacetylase; assay: Inhibition of Class 1 histone deacetylase in human THP-1 cells assessed as accumulation of Histone H4 acetylation levels at 1 to 10 uM incubated for 3 hrs by western blot analysis; assay type: cell-based; details: dose 1-10 µM
Macrophage [6] = assay: Antiinflammatory activity in human monocytes-derived macrophages assessed as inhibition of LPS-induced IL-6 secretion at 30 uM pretreated for 1 hr followed by LPS stimulation and measured after 24 hrs by homogenous time-resolved fluorescence assay; assay type: functional, cell-based; details: time 25.0 hrs
Macrophage [7] = assay: Antiinflammatory activity in human monocytes-derived macrophages assessed as inhibition of LPS-induced IL-12p40 secretion at 30 uM pretreated for 1 hr followed by LPS stimulation and measured after 24 hrs by homogenous time-resolved fluorescence assay; assay type: functional, cell-based; details: time 25.0 hrs
Macrophage [8] = assay: Antiinflammatory activity in human monocytes-derived macrophages assessed as inhibition of LPS-induced IL-1alpha secretion at 30 uM pretreated for 1 hr followed by LPS stimulation and measured after 24 hrs by homogenous time-resolved fluorescence assay; assay type: functional, cell-based; details: time 25.0 hrs
Histone deacetylase 9 = Histone deacetylase 9 (Homo sapiens, UniProt Q9UKV0); assay: Inhibition of recombinant human HDAC9 using Ac-LGK(TFA)-AMC as substrate preincubated for 15 mins followed by substrate addition and measured after 60 mins by fluorescence based assay
Histone deacetylase 4 = Histone deacetylase 4 (Homo sapiens, UniProt P56524); assay: Inhibition of recombinant human HDAC4 using Ac-LGK(TFA)-AMC as substrate pre-incubated for 15 mins followed by substrate addition and measured after 60 mins by fluorescence based assay
[9] = Inhibition of Class 2a histone deacetylase in human THP-1 cells using Ac-LGK(TFA)-AMC as substrate incubated for 3 hrs followed by 50 uM SAHA addition and measured after 1 hr by fluorescence based assay; assay type: cell-based
Macrophage [10] = assay: Antiinflammatory activity in human monocytes-derived macrophages assessed as inhibition of LPS-induced GM-CSF secretion at 30 uM pretreated for 1 hr followed by LPS stimulation and measured after 24 hrs by homogenous time-resolved fluorescence assay; assay type: functional, cell-based; details: time 25.0 hrs
Macrophage [11] = assay: Antiinflammatory activity in human monocytes-derived macrophages assessed as inhibition of LPS-induced CCL2 secretion at 30 uM pretreated for 1 hr followed by LPS stimulation and measured after 24 hrs by homogenous time-resolved fluorescence assay; assay type: functional, cell-based; details: time 25.0 hrs

Sequence of Histone deacetylase 1 (Q13547 whole entry): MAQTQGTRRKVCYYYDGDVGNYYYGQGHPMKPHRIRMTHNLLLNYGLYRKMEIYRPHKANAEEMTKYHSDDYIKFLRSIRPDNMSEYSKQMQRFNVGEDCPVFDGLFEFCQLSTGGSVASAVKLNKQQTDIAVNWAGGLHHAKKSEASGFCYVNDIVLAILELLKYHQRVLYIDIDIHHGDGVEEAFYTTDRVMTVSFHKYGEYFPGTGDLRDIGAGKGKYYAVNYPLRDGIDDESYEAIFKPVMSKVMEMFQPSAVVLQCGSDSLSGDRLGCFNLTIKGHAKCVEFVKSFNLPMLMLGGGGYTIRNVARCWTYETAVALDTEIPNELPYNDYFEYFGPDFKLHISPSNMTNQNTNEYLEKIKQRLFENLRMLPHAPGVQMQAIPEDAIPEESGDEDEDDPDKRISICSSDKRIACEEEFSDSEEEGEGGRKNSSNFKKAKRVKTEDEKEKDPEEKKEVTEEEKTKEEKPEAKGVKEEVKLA
Sequence of Histone deacetylase 9 (Q9UKV0 whole entry): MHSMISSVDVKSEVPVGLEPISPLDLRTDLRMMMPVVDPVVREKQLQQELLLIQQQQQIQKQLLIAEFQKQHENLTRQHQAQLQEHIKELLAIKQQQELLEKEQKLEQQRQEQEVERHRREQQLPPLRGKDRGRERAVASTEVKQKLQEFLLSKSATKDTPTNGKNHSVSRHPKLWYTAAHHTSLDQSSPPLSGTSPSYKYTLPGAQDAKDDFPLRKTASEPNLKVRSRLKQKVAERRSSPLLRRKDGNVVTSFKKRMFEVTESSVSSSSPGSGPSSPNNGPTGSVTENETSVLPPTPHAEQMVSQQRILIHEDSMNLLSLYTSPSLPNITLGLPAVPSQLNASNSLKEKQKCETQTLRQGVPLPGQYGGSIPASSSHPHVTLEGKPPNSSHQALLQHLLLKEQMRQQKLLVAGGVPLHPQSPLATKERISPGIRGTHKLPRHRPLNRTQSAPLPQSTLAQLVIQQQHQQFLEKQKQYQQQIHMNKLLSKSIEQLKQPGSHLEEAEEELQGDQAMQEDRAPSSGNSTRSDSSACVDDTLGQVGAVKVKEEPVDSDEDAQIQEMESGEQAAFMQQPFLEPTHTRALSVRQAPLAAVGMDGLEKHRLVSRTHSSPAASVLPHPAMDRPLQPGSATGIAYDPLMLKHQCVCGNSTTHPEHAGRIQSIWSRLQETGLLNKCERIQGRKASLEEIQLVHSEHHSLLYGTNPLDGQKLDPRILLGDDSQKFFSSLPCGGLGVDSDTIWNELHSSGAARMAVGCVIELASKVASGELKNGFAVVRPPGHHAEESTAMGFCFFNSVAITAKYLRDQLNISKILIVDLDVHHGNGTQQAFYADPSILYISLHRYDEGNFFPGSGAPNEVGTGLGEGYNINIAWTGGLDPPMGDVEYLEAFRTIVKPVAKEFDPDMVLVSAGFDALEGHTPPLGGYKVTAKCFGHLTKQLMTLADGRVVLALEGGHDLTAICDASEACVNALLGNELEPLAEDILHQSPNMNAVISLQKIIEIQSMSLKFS
Sequence of Histone deacetylase 4 (P56524 whole entry): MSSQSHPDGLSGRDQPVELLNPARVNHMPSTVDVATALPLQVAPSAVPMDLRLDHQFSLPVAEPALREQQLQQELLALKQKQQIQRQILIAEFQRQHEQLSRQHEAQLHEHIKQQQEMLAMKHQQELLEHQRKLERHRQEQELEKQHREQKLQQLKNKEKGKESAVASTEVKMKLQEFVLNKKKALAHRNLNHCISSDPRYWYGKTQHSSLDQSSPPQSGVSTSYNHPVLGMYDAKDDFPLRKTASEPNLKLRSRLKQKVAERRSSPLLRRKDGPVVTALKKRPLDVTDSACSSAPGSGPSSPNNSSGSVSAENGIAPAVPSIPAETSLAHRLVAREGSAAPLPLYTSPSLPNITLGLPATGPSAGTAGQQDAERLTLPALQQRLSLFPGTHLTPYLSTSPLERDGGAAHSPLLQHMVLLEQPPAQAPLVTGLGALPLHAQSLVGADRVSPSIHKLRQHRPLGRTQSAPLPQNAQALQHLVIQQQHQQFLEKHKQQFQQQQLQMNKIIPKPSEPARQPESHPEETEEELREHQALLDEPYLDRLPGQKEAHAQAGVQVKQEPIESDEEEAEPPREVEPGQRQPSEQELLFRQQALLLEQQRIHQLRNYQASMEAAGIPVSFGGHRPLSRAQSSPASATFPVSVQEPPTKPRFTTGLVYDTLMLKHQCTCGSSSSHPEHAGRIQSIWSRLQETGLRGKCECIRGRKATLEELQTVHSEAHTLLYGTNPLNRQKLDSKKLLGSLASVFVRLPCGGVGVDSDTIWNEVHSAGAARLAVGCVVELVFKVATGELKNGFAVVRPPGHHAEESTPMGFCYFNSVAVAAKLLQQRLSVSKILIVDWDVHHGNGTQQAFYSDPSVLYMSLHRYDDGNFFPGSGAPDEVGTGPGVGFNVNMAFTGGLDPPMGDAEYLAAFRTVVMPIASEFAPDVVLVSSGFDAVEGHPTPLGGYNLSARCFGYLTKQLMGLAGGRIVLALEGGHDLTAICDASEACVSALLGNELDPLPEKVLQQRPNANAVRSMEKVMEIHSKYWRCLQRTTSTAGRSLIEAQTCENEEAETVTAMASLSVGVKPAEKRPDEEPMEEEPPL
Sequence of Histone deacetylase 5 (Q9UQL6 whole entry): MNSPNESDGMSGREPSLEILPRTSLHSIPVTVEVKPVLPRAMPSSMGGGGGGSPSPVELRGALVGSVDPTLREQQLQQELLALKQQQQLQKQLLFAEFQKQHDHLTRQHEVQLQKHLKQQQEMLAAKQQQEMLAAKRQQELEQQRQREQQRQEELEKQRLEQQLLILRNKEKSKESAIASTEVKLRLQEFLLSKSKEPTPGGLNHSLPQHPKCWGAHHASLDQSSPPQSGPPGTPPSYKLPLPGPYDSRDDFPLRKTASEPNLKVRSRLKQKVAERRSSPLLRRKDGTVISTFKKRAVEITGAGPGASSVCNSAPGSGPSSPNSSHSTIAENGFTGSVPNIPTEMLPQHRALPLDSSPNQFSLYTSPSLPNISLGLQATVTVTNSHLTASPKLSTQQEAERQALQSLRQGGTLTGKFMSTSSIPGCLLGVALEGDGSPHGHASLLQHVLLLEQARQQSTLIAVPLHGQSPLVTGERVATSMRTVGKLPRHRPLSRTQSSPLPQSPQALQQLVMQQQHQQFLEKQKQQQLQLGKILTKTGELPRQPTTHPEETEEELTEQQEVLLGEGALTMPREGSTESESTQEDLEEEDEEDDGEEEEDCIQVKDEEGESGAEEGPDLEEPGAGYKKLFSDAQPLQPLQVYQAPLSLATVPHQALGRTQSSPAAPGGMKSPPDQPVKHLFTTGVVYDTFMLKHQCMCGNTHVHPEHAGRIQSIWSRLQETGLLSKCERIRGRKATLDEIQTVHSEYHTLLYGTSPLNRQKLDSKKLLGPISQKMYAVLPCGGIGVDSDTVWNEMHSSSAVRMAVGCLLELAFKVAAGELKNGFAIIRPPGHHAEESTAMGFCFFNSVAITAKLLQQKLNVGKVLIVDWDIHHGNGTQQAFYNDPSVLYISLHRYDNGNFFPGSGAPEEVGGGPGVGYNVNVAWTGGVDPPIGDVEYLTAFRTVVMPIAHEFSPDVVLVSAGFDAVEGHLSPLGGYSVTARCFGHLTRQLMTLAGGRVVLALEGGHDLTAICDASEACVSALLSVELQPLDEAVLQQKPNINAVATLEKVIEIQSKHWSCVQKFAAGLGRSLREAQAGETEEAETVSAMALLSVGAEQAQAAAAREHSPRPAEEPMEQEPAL

- half-life at 5 µM [1]: 3.3 h
Structure (SMILES): O=C(CCCCCCC(=O)Nc1ccccc1)NO [VORINOSTAT]

- pIC50 (Histone deacetylase 1): 5.00
- half-life at 5 µM [1]: 2.82 h
Structure (SMILES): O=C(NO)c1ccc(CN2Cc3ccccc3C2=O)cc1-c1ccccc1

- pIC50 (Histone deacetylase 1): < 4.00
Structure (SMILES): O=C(NO)c1ccc(CN2C(=O)c3ccncc3C2=O)cc1-c1ccccc1

- pIC50 (Histone deacetylase 1): 5.00
- pIC50 (Histone deacetylase 7): 5.77
Structure (SMILES): COc1ccc(CC(=O)NCCCCC(C(=O)NO)c2ccccc2)cc1 (configuration not stated)

- pIC50 (Histone deacetylase 1): 4.41
Structure (SMILES): O=C(NCc1ccc(C(=O)NO)c(-c2ccccc2)c1)c1ccccc1F

- pIC50 (Histone deacetylase 5): 6.67
- half-life at 20 µM [3]: 0.767 h
- IC50 [4]: > 30000 nM
- pIC50 (Histone deacetylase 8): 5.68
- pIC50 (Histone deacetylase 1): 4.35
- inhibition [5]: inactive
- pIC50 (Histone deacetylase 9): 7.80
- pIC50 (Histone deacetylase 4): 6.45
- pIC50 [9]: 5.52
Structure (SMILES): CC(C)(CNC(=O)c1cccc(-c2noc(C(F)(F)F)n2)c1)c1coc(-c2ccccc2)n1
- Activity (Macrophage [2]): Active
- Activity (Macrophage [6]): Active
- Activity (Macrophage [7]): inactive
- Activity (Macrophage [8]): Active
- Activity (Macrophage [10]): Active
- Activity (Macrophage [11]): Active

- pIC50 (Histone deacetylase 1): 4.70
Structure (SMILES): O=C(NO)[C@H](CCCCN1C(=O)c2ccccc2C1=O)c1ccccc1

- pIC50 (Histone deacetylase 7): 5.96
Structure (SMILES): O=C(NO)C(OCCCN1C(=O)c2ccccc2C1=O)c1cccc(Cl)c1 (configuration not stated)

- pIC50 (Histone deacetylase 1): 6.77
Structure (SMILES): O=C(NO)c1ccc(CN2C(=O)c3ccccc3C2=O)cc1

- pIC50 (Histone deacetylase 1): < 4.00
Structure (SMILES): O=C(NO)c1ccc(CN2C(=O)CCC2=O)cc1-c1ccccc1

- pIC50 (Histone deacetylase 1): < 4.00
Structure (SMILES): Cc1ccc(C(=O)NO)c(-c2ccccc2)c1
